Structures can show the parent of a compound that is named as a salt.
Target: Bek (Homo sapiens, UniProt P21802)
Test: Inhibitory activity against Bek-autophosphorylation using ELISA method in OCUM-2MD3 cells
Type: cell-based
Conditions: 1 hr with compound, read-out: IC50 (concentration necessary for inhibiting 50% of Bek-phosphorylation)
Procedure, shortened: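 Sandwich ELISA (anti-phosphotyrosine capture, anti-Bek detection, peroxidase, 450 nm) measured Bek autophosphorylation in OCUM-2MD3 lysates after 1 hr compound treatment at 37° C in 0.1% serum medium. IC50 derived by scaling between no-drug (100%) and excess positive control at 1000 nM (0%).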

Chain of Bek (P21802 431-767 limits assumed): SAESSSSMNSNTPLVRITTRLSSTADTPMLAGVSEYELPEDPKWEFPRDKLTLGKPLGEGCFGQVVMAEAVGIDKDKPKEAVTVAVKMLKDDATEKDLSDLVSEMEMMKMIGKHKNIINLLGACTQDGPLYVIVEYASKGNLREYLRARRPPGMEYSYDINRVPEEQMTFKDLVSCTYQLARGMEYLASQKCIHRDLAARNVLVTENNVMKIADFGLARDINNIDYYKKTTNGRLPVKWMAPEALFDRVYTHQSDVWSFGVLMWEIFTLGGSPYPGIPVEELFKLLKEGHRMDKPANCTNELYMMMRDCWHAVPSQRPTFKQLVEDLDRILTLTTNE

Compound | IC50
COc1cc2c(Oc3ccc(Nc4ccc(C(C)(C)C)cc4)cc3)ccnc2cc1OCCCCN1CCN(C)CC1 [Compound 29, (4-Tert-butylphenyl)-(4-{6-methoxy-7-[4-(4-methylpiperazin-1-yl)butoxy]quinolin-4-yloxy}phenyl)amine] | 931 nM
COc1cc2c(Oc3ccc(NC(=O)NCCC(C)(C)C)cc3)ccnc2cc1OCCCCBr [Compound 148, 1-{4-[7-(4-Bromo-butoxy)-6-methoxy-quinolin-4-yloxy]-phenyl}-3-(3,3-dimethyl-butyl)-urea] | 1670 nM
COc1cc2c(Oc3ccc(NC(=O)NCCC(C)(C)C)cc3)ccnc2cc1OCCN1CCC(Cc2ccccc2)CC1 [Compound 122, 1-(4-{7-[2-(4-Benzyl-piperidin-1-yl)-ethoxy]-6-methoxy-quinolin-4-yloxy}-phenyl)-3-(3,3-dimethyl-butyl)-urea] | 151 nM
COc1cc2c(Oc3ccc(NC(=O)NCCC(C)(C)C)c(F)c3)ccnc2cc1OCCCN1CCOCC1 [Compound 210, 1-(3,3-Dimethyl-butyl)-3-{2-fluoro-4-[6-methoxy-7-(3-morpholin-4-yl-propoxy)-quinolin-4-yloxy]-phenyl}-urea] | < 10 nM
COc1cc2c(Oc3ccc(Nc4ccc(C(C)(C)C)cc4)cc3Cl)ccnc2cc1OCCN1CCC(CCO)CC1 [Compound 313, 2-[1-(2-{4-[4-(4-Tert-butyl-phenylamino)-2-chloro-phenoxy]-6-methoxy-quinolin-7-yloxy}-ethyl)-piperidin-4-yl]-ethanol] | 367 nM
COc1cc2c(Oc3ccc(Nc4ccc(C(C)(C)C)cc4)cc3)ccnc2cc1OCCCN1CC(C)CC(C)C1 (stereo not drawn) [Compound 233, (4-Tert-butyl-phenyl)-(4-{7-[3-(3,5-dimethyl-piperidin-1-yl)-propoxy]-6-methoxy-quinolin-4-yloxy}-phenyl)-amine] | 371 nM
COc1cc2c(Oc3ccc(NC(=O)NCCC(C)(C)C)cc3)ccnc2cc1OCCCN(C)CCO [Compound 269, 1-(3,3-Dimethyl-butyl)-3-[4-(7-{3-[(2-hydroxy-ethyl)-methyl-amino]-propoxy}-6-methoxy-quinolin-4-yloxy)-phenyl]-urea] | 35.6 nM
COc1cc2c(Oc3ccc(NC(=O)NCCC(C)(C)C)cc3)ccnc2cc1OCCN1CC(C)OC(C)C1 (stereo not drawn) [Compound 119, 1-(3,3-Dimethyl-butyl)-3-(4-{7-[2-(2,6-dimethyl-morpholin-4-yl)-ethoxy]-6-methoxy-quinolin-4-yloxy}-phenyl)-urea] | < 10 nM
COc1cc2c(Oc3ccc(Nc4ccc(C(C)(C)C)cc4)cc3)ccnc2cc1OCCNC1(CO)CCCC1 [Compound 350, [1-(2-{4-[4-(4-Tert-butyl-phenylamino)-phenoxy]-6-methoxy-quinolin-7-yloxy}-ethylamino)-cyclopenthyl]-methanol] | 334 nM
COc1cc2c(Oc3ccc(Nc4ccc(C(C)(C)C)cc4)cc3Cl)ccnc2cc1OCCN1CCC(CO)CC1 [Compound 308, [1-(2-{4-[4-(4-Tert-butyl-phenylamino)-2-chloro-phenoxy]-6-methoxy-quinolin-7-yloxy}-ethyl)-piperidin-4-yl]-methanol] | 204 nM
COc1cc2c(Oc3ccc(NC(=O)NCCC(C)(C)C)c(Cl)c3)ccnc2cc1OCCCN1CCC(CO)CC1 [Compound 266, 1-(2-Chloro-4-{7-[3-(4-hydroxymethyl-piperidin-1-yl)-propoxy]-6-methoxy-quinolin-4-yloxy}-phenyl)-3-(3,3-dimethyl-butyl)-urea] | 11 nM
COc1cc2ncnc(Oc3ccc(Nc4ccc(C(C)C)cc4)cc3)c2cc1OC [Compound 72, [4-(6,7-Dimethoxyquinazolin-4-yloxy)phenyl]-(4-isopropyl-phenyl)amine] | 836 nM
COc1cc2c(Oc3ccc(NC(=O)NCCC(C)(C)C)cc3)ccnc2cc1OCCCBr [Compound 147, 1-{4-[7-(3-Bromo-propoxy)-6-methoxy-quinolin-4-yloxy]-phenyl}-3-(3,3-dimethyl-butyl)-urea] | 654 nM
COc1cc2c(Oc3ccc(NC(=O)NCCC(C)(C)C)cc3)ccnc2cc1OCCCCN1CCN(C)CC1 [Compound 159, 1-(3,3-Dimethyl-butyl)-3-(4-{6-methoxy-7-[4-(4-methyl-piperazin-1-yl)-butoxy]-quinolin-4-yloxy}-phenyl)-urea hydrochloride] | 26.2 nM

The next lines start with the values.

IC50 | Compound
29.9 nM | COc1cc2c(Oc3ccc(NC(=O)NCCC(C)(C)C)c(Cl)c3)ccnc2cc1OCCCN1CCCN(C)CC1 [Compound 188, 1-(2-Chloro-4-{6-methoxy-7-[3-(4-methyl-[1,4]diazepan-1-yl)-propoxy]-quinolin-4-yloxy}-phenyl)-3-(3,3-dimethyl-butyl)-urea]
230 nM | COc1cc2c(Oc3ccc(Nc4ccc(C(C)(C)C)cc4)cc3)ccnc2cc1OCCCN(C)C [Compound 46, N1-[4-(Tert-butyl)phenyl]-4-({7-[3-(dimethylamino)propoxy]-6-methoxy-4-quinolyl}oxy)aniline]
1010 nM | COc1cc2nccc(Oc3ccc(C(OC(C)=O)c4ccc(C(C)(C)C)cc4)cc3)c2cc1OC (stereo not drawn) [Compound 31, (4-Tert-butylphenyl)-[4-(6,7-dimethoxyquinolin-4-yloxy)phenyl]methyl acetate]
3510 nM | COc1cc2nccc(Oc3ccc(Nc4ccsc4)cc3)c2cc1OC [Compound 73, [4-(6,7-Dimethoxyquinolin-4-yloxy)phenyl]thiophen-3-ylamine]
1130 nM | COc1cc2c(Oc3ccc(Nc4ccc(C(C)(C)C)cc4)c(Cl)c3)ccnc2cc1OCCCN1CCC(O)CC1 [Compound 276, 1-(3-{4-[4-(4-Tert-butyl-phenylamino)-3-chloro-phenoxy]-6-methoxy-quinolin-7-yloxy}-propyl)-piperidin-4-ol]
28.5 nM | COc1cc2c(Oc3ccc(Nc4ccc(C(C)(C)C)cc4)cc3)ccnc2cc1OCC(O)CN1CC(C)OC(C)C1 (stereo not drawn) [Compound 253, 1-{4-[4-(4-Tert-butyl-phenylamino)-phenoxy]-6-methoxy-quinolin-7-yloxy}-3-(2,6-dimethyl-morpholin-4-yl)-propan-2-ol]
248 nM | COc1cc2c(Oc3ccc(Nc4ccc(C(C)(C)C)cc4)cc3)ccnc2cc1OCCN1C[C@@H](C)O[C@@H](C)C1 [Compound 68, (4-Tert-butylphenyl)-(4-{7-[2-(2,6-dimethylmorpholin-4-yl)ethoxy]-6-methoxyquinolin-4-yloxy}phenyl)amine]
1100 nM | COc1cc2c(Oc3ccc(Nc4ccc(C(C)(C)C)cc4)c(Cl)c3)ccnc2cc1OCCCN1CCC(CCO)CC1 [Compound 294, 2-[1-(3-{4-[4-(4-Tert-butyl-phenylamino)-3-chloro-phenoxy]-6-methoxy-quinolin-7-yloxy}-propyl)-piperidin-4-yl]-ethanol]
269 nM | COc1cc2c(Oc3ccc(Nc4ccc(C(C)(C)C)cc4)cc3)ccnc2cc1OCCCN1CCC(N2CCCCC2)CC1 [Compound 236, {4-[7-(3-[1,4′]Bipiperidineyl-1 ′-yl-propoxy)-6-methoxy-quinolin-4-yloxy]-phenyl}-(4-tert-butyl-phenyl)-amine]
88 nM | COc1cc2c(Oc3ccc(NC(=O)NCCC(C)(C)C)cc3)ccnc2cc1OCCN1CCC(c2ccccc2)CC1 [Compound 121, 1-(3,3-Dimethyl-butyl)-3-(4-{6-methoxy-7-[2-(4-phenyl-piperidin-1-yl)-ethoxy]-quinolin-4-yloxy}-phenyl)-urea]
< 10 nM | CCN(CCO)CCCOc1cc2nccc(Oc3ccc(NC(=O)NCCC(C)(C)C)cc3)c2cc1OC [Compound 343, 1-(3,3-Dimethyl-butyl)-3-[4-(7-{3-[ethyl-(2-hydroxy-ethyl)-amino]-propoxy}-6-methoxy-quinolin-4-yloxy)-phenyl]-urea]
287 nM | COc1cc2nccc(Oc3ccc(NC(=O)NCCC(C)(C)C)cc3)c2cc1OCCCN1CCC(CCO)CC1 [Compound 324, 1-(3,3-Dimethyl-butyl)-3-[4-(6-{3-[4-(2-hydroxy-ethyl)-piperidin-1-yl]-propoxy}-7-methoxy-quinolin-4-yloxy)-phenyl]-urea]
58.6 nM | COc1cc2nccc(Oc3ccc(NC(=O)NCCC(C)(C)C)c(C)c3C)c2cc1OC [Compound 141, 1-[4-(6,7-Dimethoxy-quinolin-4-yloxy)-2,3-dimethyl-phenyl]-3-(3,3-dimethyl-butyl)-urea]
10 nM | COc1cc2c(Oc3ccc(NC(=O)NCCC(C)(C)C)cc3)ccnc2cc1OCCN1CCN(C)CC1 [Compound 113, 1-(3,3-Dimethyl-butyl)-3-(4-{6-methoxy-7-[2-(4-methyl-piperazin-1-yl)-ethoxy]-quinolin-4-yloxy}-phenyl)-urea hydrochloride]
20.8 nM | COc1cc2c(Oc3ccc(NC(=O)NCCC(C)(C)C)c(F)c3)ccnc2cc1OCCNCCO [Compound 329, 1-(3,3-Dimethyl-butyl)-3-(2-fluoro-4-{7-[2-(2-hydroxy-ethylamino)-ethoxy]-6-methoxy-quinolin-4-yloxy}-phenyl)-urea]
95.3 nM | COc1cc2c(Oc3ccc(Nc4ccc(C(C)(C)C)cc4)c(F)c3)ccnc2cc1OCCN(CCO)CCO [Compound 335, 2-[(2-{4-[4-(4-Tert-butyl-phenylamino)-3-fluoro-phenoxy]-6-methoxy-quinolin-7-yloxy}-ethyl)-(2-hydroxy-ethyl)-amino]-ethanol]
25.2 nM | COc1cc2c(Oc3ccc(NC(=O)NCCC(C)(C)C)c(Cl)c3)ccnc2cc1OCC1CCN(C)CC1 [Compound 169, 1-{2-Chloro-4-[6-methoxy-7-(1-methyl-piperidin-4-ylmethoxy)-quinolin-4-yloxy]-phenyl}-3-(3,3-dimethyl-butyl)-urea]
24.4 nM | COc1cc2c(Oc3ccc(NC(=O)NCCC(C)(C)C)c(Cl)c3)ccnc2cc1OCC1CCN(CCO)CC1 [Compound 170, 1-(2-Chloro-4-{7-[1-(2-hydroxy-ethyl)-piperidin-4-ylmethoxy]-6-methoxy-quinolin-4-yloxy}-phenyl)-3-(3,3-dimethyl-butyl)-urea]
321 nM | COc1cc2nccc(Oc3ccc(Nc4ccc(C(C)(C)C)cc4)cc3)c2cc1OC [Compound 5, (4-Tert-butylphenyl)-[4-(6,7-dimethoxyquinolin-4-yloxy)phenyl]amine]

Reference: patent US7495104B2, “Quinoline or quinazoline derivatives inhibiting auto-phosphorylation of fibroblast growth factor receptors” (Kirin Beer Kabushiki Kaisha, priority 2001, dated 2009)
